From ChEMBL document CHEMBL5370672, “Discovery of Orally Bioavailable Phthalazinone Analogues as an ENPP1 Inhibitor for STING-Mediated Cancer Immunotherapy” (J Med Chem, 2023)
Activity calls are given as the source filed them. The rule behind the calls is not given here.

How the values were obtained:
[1] = Half-life in BALB/c mouse at 20 mg/kg, po measured after 24 hrs by LC-MS/MS analysis; type: ADME, organism-based; conditions: in vivo
[2] = Tmax in BALB/c mouse at 20 mg/kg, po measured after 24 hrs by LC-MS/MS analysis; type: ADME, organism-based; conditions: in vivo
[3] = Cmax in BALB/c mouse at 20 mg/kg, po measured after 24 hrs by LC-MS/MS analysis; type: ADME, organism-based; set-up: dose 20 mg/kg, time 24 hrs, route po; conditions: in vivo
[4] = MRT (0 to t) in BALB/c mouse at 20 mg/kg, po measured after 24 hrs by LC-MS/MS analysis; type: ADME, organism-based; conditions: in vivo
[5] = MRT (0 to infinity) in BALB/c mouse at 20 mg/kg, po measured after 24 hrs by LC-MS/MS analysis; type: ADME, organism-based; conditions: in vivo
[6] = Half-life in BALB/c mouse at 5 mg/kg, iv measured after 24 hrs by LC-MS/MS analysis; type: ADME, organism-based; conditions: in vivo
[7] = Tmax in BALB/c mouse at 5 mg/kg, iv measured after 24 hrs by LC-MS/MS analysis; type: ADME, organism-based; conditions: in vivo
[8] = Cmax in BALB/c mouse at 5 mg/kg, iv measured after 24 hrs by LC-MS/MS analysis; type: ADME, organism-based; set-up: dose 5 mg/kg, time 24 hrs, route iv; conditions: in vivo
[9] = AUC (0 to t) in BALB/c mouse at 5 mg/kg, iv measured after 24 hrs by LC-MS/MS analysis; type: ADME, organism-based; set-up: dose 5 mg/kg, time 24 hrs, route iv; conditions: in vivo
[10] = AUC (0 to infinity) in BALB/c mouse at 5 mg/kg, iv measured after 24 hrs by LC-MS/MS analysis; type: ADME, organism-based; set-up: dose 5 mg/kg, time 24 hrs, route iv; conditions: in vivo
[11] = MRT (0 to t) in BALB/c mouse at 5 mg/kg, iv measured after 24 hrs by LC-MS/MS analysis; type: ADME, organism-based; conditions: in vivo
[12] = MRT (0 to infinity) in BALB/c mouse at 5 mg/kg, iv measured after 24 hrs by LC-MS/MS analysis; type: ADME, organism-based; conditions: in vivo
[13] = Volume of distribution at steady state in BALB/c mouse at 5 mg/kg, iv measured after 24 hrs by LC-MS/MS analysis; type: ADME, organism-based; conditions: in vivo, read-out: Vdss
[14] = Clearance in BALB/c mouse at 5 mg/kg, iv measured after 24 hrs by LC-MS/MS analysis; type: ADME, organism-based; conditions: in vivo
[15] = Protein binding in human plasma assessed as unbound fraction by equilibrium dialysis based LC-MS/MS analysis; type: ADME, cell-free
[16] = Metabolic stability in human liver microsome assessed as intrinsic clearance by LC/MS analysis; type: ADME; conditions: liver microsomes, read-out: CLH
[17] = Metabolic stability in human liver microsome assessed as parent compound remaining measured after 30 mins by LC/MS analysis; type: ADME; conditions: liver microsomes, read-out: Stability
[18] = Metabolic stability in mouse liver microsome assessed as half-life by LC/MS analysis; type: ADME; conditions: liver microsomes
[19] = Metabolic stability in mouse liver microsome assessed as parent compound remaining measured after 30 mins by LC/MS analysis; type: ADME; conditions: liver microsomes, read-out: Stability
Cytochrome P450 1A2 = molecular target: T1, Cytochrome P450 1A2 (Homo sapiens, UniProt P05177); experiment: Inhibition of CYP1A2 in human liver microsomes; type: ADME, Microsome
T1 sequence (P05177 whole entry): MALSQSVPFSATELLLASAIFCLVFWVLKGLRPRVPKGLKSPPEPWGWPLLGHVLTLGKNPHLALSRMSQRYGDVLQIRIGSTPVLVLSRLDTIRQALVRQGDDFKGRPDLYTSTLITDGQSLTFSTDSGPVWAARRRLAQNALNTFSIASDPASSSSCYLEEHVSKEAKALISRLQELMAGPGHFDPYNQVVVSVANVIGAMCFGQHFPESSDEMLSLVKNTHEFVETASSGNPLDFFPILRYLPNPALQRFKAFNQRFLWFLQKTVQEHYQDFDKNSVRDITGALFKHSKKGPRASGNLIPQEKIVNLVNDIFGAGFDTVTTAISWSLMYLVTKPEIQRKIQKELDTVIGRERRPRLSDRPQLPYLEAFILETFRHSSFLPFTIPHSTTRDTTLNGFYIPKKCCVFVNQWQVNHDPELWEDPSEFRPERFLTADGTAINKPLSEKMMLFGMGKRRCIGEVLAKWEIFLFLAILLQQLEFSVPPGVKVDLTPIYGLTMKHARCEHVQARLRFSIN

Cytochrome P450 2C9 = Cytochrome P450 2C9 (Homo sapiens, UniProt P11712); experiment: Inhibition of CYP2C9 in human liver microsomes; type: ADME, Microsome
Chain of Cytochrome P450 2C9 (P11712 whole entry): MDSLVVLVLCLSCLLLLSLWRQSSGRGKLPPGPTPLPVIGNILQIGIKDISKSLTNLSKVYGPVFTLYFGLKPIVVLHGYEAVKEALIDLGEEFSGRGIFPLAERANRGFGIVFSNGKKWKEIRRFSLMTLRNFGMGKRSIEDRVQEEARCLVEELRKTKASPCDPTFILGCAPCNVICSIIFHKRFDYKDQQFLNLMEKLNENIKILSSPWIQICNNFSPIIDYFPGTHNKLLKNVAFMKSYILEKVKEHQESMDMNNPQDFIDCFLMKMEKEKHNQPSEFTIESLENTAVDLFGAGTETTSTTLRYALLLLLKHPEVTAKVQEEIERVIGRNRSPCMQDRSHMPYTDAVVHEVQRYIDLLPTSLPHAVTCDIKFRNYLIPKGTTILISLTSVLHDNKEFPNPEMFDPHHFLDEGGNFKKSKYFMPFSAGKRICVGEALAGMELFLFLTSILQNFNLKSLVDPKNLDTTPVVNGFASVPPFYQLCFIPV

Cytochrome P450 2C19 = Cytochrome P450 2C19 (Homo sapiens, UniProt P33261); experiment: Inhibition of CYP2C19 in human liver microsomes; type: ADME, Microsome
Chain of Cytochrome P450 2C19 (P33261 whole entry): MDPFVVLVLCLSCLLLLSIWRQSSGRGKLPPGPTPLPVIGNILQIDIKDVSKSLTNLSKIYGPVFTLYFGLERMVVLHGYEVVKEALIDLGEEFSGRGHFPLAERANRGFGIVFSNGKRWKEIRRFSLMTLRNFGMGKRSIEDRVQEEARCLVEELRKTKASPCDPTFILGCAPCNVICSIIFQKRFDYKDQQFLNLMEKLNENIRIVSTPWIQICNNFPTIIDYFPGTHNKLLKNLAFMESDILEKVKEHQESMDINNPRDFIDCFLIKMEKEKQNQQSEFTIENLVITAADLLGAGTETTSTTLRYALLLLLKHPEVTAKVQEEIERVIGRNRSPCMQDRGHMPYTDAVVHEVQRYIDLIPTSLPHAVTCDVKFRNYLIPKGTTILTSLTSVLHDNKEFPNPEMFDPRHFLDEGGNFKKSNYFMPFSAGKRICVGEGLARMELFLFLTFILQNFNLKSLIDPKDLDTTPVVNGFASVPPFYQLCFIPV

Cytochrome P450 3A4 = Cytochrome P450 3A4 (Homo sapiens, UniProt P08684); experiment: Inhibition of CYP3A4 in human liver microsomes; type: ADME, Microsome
Chain of Cytochrome P450 3A4 (P08684 whole entry): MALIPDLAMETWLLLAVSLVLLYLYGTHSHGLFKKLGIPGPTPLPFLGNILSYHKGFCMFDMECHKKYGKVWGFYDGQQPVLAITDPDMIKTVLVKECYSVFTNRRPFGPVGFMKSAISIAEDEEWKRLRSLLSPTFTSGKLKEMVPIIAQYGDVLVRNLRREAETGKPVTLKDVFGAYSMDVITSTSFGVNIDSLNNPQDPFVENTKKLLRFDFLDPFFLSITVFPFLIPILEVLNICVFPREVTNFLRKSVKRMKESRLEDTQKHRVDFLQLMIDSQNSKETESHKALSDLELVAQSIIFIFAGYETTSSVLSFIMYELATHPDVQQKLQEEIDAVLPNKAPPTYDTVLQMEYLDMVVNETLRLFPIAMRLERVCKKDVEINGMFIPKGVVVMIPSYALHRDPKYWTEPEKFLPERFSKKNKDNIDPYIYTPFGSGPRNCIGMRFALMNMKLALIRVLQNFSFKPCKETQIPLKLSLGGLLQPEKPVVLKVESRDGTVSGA

[20] = molecular target: Stimulator of interferon genes protein (Homo sapiens) (UniProt Q86WV6); experiment: Activation of STING-mediated immune response in human HCT-116 cells transfected with ISRE reporter assessed as increase in cGAMP-induced ISRE activation by measuring fold change at 25 to 100 uM preincubated with compound for 1 hrs followed by cGAMP addition and measured after 48 hrs by luciferase reporter gene assay; type: cell-based; conditions: filed as activator, dose 25-100 µM, time 49.0 hrs
Chain of Stimulator of interferon genes protein (Homo sapiens) (Q86WV6 whole entry): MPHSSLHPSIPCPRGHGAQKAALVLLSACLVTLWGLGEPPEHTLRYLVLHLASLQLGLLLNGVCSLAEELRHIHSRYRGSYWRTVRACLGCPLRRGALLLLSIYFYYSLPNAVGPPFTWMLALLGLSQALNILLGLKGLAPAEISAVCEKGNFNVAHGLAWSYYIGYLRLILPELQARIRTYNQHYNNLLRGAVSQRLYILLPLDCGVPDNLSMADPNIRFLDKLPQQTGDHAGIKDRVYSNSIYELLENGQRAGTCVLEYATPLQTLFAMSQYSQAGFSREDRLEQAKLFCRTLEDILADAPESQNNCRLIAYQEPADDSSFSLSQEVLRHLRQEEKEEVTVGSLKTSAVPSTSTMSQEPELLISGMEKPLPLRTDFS

[21] = molecular target: Stimulator of interferon genes protein (Homo sapiens) (UniProt Q86WV6); experiment: Activation of STING-mediated immune response in human HCT-116 cells transfected with ISRE reporter assessed as increase in cGAMP-induced ISRE activation preincubated with compound for 1 hrs followed by cGAMP addition and measured after 48 hrs by luciferase reporter gene assay; type: cell-based; conditions: filed as activator, dose <= 200.0 µM, time 49.0 hrs
[22] = molecular target: Stimulator of interferon genes protein (Homo sapiens) (UniProt Q86WV6); experiment: Activation of STING-mediated immune response in STING knockout human THP-1 cells transfected with ISRE reporter assessed as increase in cGAMP-induced ISRE activation upto 50 uM preincubated with compound for 1 hrs followed by cGAMP addition and measured after 24 hrs by luciferase reporter gene assay; type: cell-based; conditions: time 25.0 hrs
THP-1 = experiment: Cytotoxicity against human THP-1 cells assessed as reduction in cell viability upto 50 uM incubated for 24 hrs in the presence of cGAMP by celltiter 96 aqueous one solution cell proliferation assay; type: toxicity, cell-based; conditions: thp-1, 24 h
CT26 [23] = experiment: Antitumor activity against mouse CT26 cells implanted in BALB/c mouse assessed as tumor growth inhibition at 200 mg/kg, po administered for 2 weeks and measured on day 15 relative to control; type: functional; conditions: CT26, 360 h, time 15 day, read-out: TGI
[24] = Toxicity in BALB/c mouse implanted with mouse CT26 cells assessed as effect on body weight at 200 mg/kg, po administered for 2 weeks and measured on day 15; type: organism-based; conditions: in vivo, 360 h, time 15 day
[25] = Toxicity in BALB/c mouse implanted with mouse CT26 cells assessed as effect on body weight at 200 mg/kg, po administered for 2 weeks and measured on day 15 in the presence of anti-PD-L1 antibody; type: organism-based; conditions: in vivo, 360 h, time 15 day
CT26 [26] = experiment: Immunological memory derived antitumor activity against mouse CT26 cells implanted in BALB/c mouse assessed as tumor growth regression at 200 mg/kg, po preadministered with compound for 2 weeks followed by reinoculation of CT26 cells and measured on day 19 relative to control; type: functional; conditions: time 19 day
[27] = Toxicity in BALB/c mouse implanted with mouse CT26 cells assessed as effect on body weight at 200 mg/kg, po preadministered with compound for 2 weeks followed by reinoculation of CT26 cells and measured on day 19 in the presence of anti-PD-L1 antibody; type: organism-based; conditions: in vivo, 456 h, time 19 day

Question: With Cn1nc(Cc2ccc(NS(N)(=O)=O)cc2)c2ccccc2c1=O as the molecule, how does the half-life [1] read?
Answer: 2.8 h

Question: And the Tmax [2]?
Answer: 1.67 h

Question: What about the Cmax [3] of the same molecule?
Answer: 12.7 µg/mL

Question: What about the MRT last at 24 h [4] of the same molecule?
Answer: 3.75 h

Question: What about the MRT inf [5] of the same molecule?
Answer: 3.81 h

Question: And the half-life [6]?
Answer: 3.61 h

Question: And the Tmax [7]?
Answer: 4.8 min

Question: And the Cmax [8]?
Answer: 9.54 µg/mL

Question: What about the AUC(0-t) at 24 h [9] of the same molecule?
Answer: 30.4 µg·h/mL

Question: What about the AUC(0-inf) [10] of the same molecule?
Answer: 30.9 µg·h/mL

Question: And the MRT last at 24 h [11]?
Answer: 2.83 h

Question: And the MRT inf [12]?
Answer: 3.21 h

Question: And the Vd [13]?
Answer: 0.51 L/kg

Question: And the clearance [14]?
Answer: 0.173 L/h/kg

Question: What about the fraction unbound [15] of the same molecule?
Answer: 0.18

Question: And the CLint scaled [16]?
Answer: < 0.869 L/h/kg

Question: What about the remaining at 0.5 h [17] of the same molecule?
Answer: 87%

Question: What about the half-life [18] of the same molecule?
Answer: 0.987 h

Question: What about the remaining at 0.5 h [19] of the same molecule?
Answer: 65%

Question: And the IC50 (Cytochrome P450 1A2)?
Answer: > 10 µM

Question: And the IC50 (Cytochrome P450 2C9)?
Answer: > 10 µM

Question: What about the IC50 (Cytochrome P450 2C19) of the same molecule?
Answer: > 10 µM

Question: And the IC50 (Cytochrome P450 3A4)?
Answer: > 10 µM

Question: And the fold change (FC) [20]?
Answer: 3.63

Question: And the Activity [21]?
Answer: Dose-Dependent Effect

Question: And the Activity [22]?
Answer: inactive

Question: What about the Activity (THP-1) of the same molecule?
Answer: Non-Toxic

Question: And the inhibition in vivo at 200 mg/kg (CT26 [23])?
Answer: 55%

Question: And the Activity [24]?
Answer: Non-Toxic

Question: What about the Activity [25] of the same molecule?
Answer: Non-Toxic

Question: And the Activity (CT26 [26])?
Answer: 100%

Question: What about the Activity [27] of the same molecule?
Answer: Non-Toxic
